These are literature values, as cited in patent US5811400A, “Peptide derivatives with δ opioid receptor antagonist or mixed μ agδ antagonist effects” (Astra AB, priority 1994, dated 1998).

The test system of the data set is μ opioid receptors. The settings on record: GPI assay.

In the case of `Oc1ccc2c3c1O[C@H]1c4[nH]c5ccccc5c4C[C@@]4(O)[C@@H](C2)N(CC2CC2)CC[C@]314` [naltrindole], the “μ antagonist properties (Ke)” value is 29 nM.
